Data set [1] can be described thus: Cytotoxicity against human TZM-bl cells assessed as cell viability after 48 hrs by WST1 assay. The format is cell-based. Background: Formazan colour is commonly taken as a measure of viable cells.
In a further data set the test system is Leishmania infantum. Put plainly: Antileishmanial activity against Leishmania infantum MHOM/MA (BE)/67 infected in primary peritoneal mouse macrophages assessed as reduction in parasite burdun. The class given is functional, organism-based.
The subject of data set [2] is Trypanosoma brucei brucei. Put plainly: Antitrypanocidal activity against suramin-sensitive Trypanosoma brucei brucei Squib427 assessed as reduction in parasite growth after 72 hrs. The format is functional, organism-based. The conditions noted are these: Squib427, 72 h.
Another data set deals with Plasmodium falciparum. Put plainly: Antiplasmodial activity against chloroquine-resistant Plasmodium falciparum K1 infected in human O positive erythrocyte assessed as reduction in parasitemia after 72 hrs. The format is functional, organism-based. The conditions noted are these: K1, 72 h.
Another data set has as its system Trypanosoma cruzi. Put plainly: Trypanocidal activity against nifurtimox-sensitive Trypanosoma cruzi Tulahuen CL2 infected in human MRC5 SV2 cells assessed as parasite growth inhibition after […] by beta-galactosidase assay. The class given is functional, organism-based.
In data set [3] the test system is Trypanosoma brucei rhodesiense. Put plainly: Antitrypanocidal activity against suramin-sensitive Trypanosoma brucei rhodesiense STIB-900 assessed as reduction in parasite growth after 72 hrs. The format is functional, organism-based. The note with it: STIB-900, 72 h.
Data set [4] deals with Human immunodeficiency virus 1. Put plainly: Antiviral activity against HIV1 infected in human TZM-bl cells assessed as viral inhibition pre-incubated for 30 mins prior to infection measured after 48 hrs by. The class given is functional, organism-based. The note with it: Human immunodeficiency virus 1, TZM-bl.
The nature of data set [5]: Cytotoxicity against human MRC5 SV2 cells assessed as reduction in cell growth after 72 hrs. The class given is cell-based. The conditions noted are these: MRC5, 72 h.
Data set [6] can be described thus: Octanol-phosphate buffer partition coefficient, log D of the compound at pH 7.4 after 2 hrs of shaking after 2 hrs. The format is physicochemical.
Data set [7] in a line: Stability of the compound in PBS buffer assessed as recovery at pH 7.4 measured after 24 hrs by UPLC analysis. The class given is physicochemical. The conditions noted are these: read-out: Drug recovery.
Data set [8] in a line: Metabolic stability in mouse liver microsomes assessed as compound remaining after 15 mins by UPLC analysis. The format is ADME. The conditions noted are these: read-out: Stability. For orientation: Microsomes from liver hold many membrane-bound enzymes, among them those of drug oxidation.
Data set [9] in a line: Metabolic stability in human liver microsomes assessed as compound remaining after 15 mins by UPLC analysis. The note with it: read-out: Stability. The class given is ADME.
Data set [10] can be described thus: Solubility of the compound in 10 mM PBS buffer solution at pH7.4 at 3.125 to 200 uM after 2 hrs. The class given is physicochemical. The note with it: pH 7.4.
Data set [11] can be described thus: Metabolic stability in human plasma assessed as compound remaining after 1 hr. The class given is ADME, cell-free. The note with it: read-out: Stability.
Data set [12] can be described thus: Metabolic stability in mouse plasma assessed as compound remaining after 1 hr. The class given is ADME, cell-free. The note with it: read-out: Stability.
Data set [13] relates to Trypanosoma brucei brucei. Put plainly: Trypanocidal activity against suramin-sensitive Trypanosoma brucei brucei Squib427 infected in Swiss mouse assessed as survivors on day 14 post infection at 10 mg/kg first dose through orally and next four dosed administered intraperitoneally for 4 days. The format is functional, organism-based. Details: dose 10 mg/kg.
Data set [14] relates to Trypanosoma brucei brucei. Put plainly: Trypanocidal activity against suramin-sensitive Trypanosoma brucei brucei Squib427 infected in Swiss mouse assessed as reduction in parasitemia at 10 mg/kg first dose through orally and next four dosed administered intraperitoneally for 4 days. The class given is functional. The conditions noted are these: Squib427, 96 h, route oral.

For data set [15], the system named is Trypanosoma brucei brucei. Put plainly: Trypanocidal activity against suramin-sensitive Trypanosoma brucei brucei Squib427 infected in Swiss mouse assessed as mean survival time at 10 mg/kg first dose through orally and next four dosed administered intraperitoneally for 4 days (reference value: 7.2 days). The class given is functional. The conditions noted are these: route oral.

Activity calls are given as the source filed them. The calls are words filed in the database; no cut-off is given here. A value given as a limit tells only on which side of the number the result lay.

Turning to `NS(=O)(=O)c1ccc(Oc2ccc(NC(=O)N[C@H]3[C@@H]4COc5c(F)ccc(F)c5[C@@H]43)nc2)cc1`, the CC50 (commonly the concentration that lowers cell viability or growth by half) at 48 h in data set [1] is over 100 µM. The IC50 (usually the concentration that inhibits the measured activity by half) with Leishmania infantum is 32.5 µM; in [2] it was 32.1 µM; with Plasmodium falciparum, 29.5 µM; with Trypanosoma cruzi, over 64 µM; in data set [3] it was 38.5 µM. Moreover, in [4], the EC50 (in general, the concentration at which the effect is half-maximal) came to 0.001 µM.
Turning to `N#Cc1ccc(NC(=O)N[C@@H]2[C@@H]3COc4c(F)ccc(F)c4[C@@H]32)nc1`, the IC50 in data set [5] is over 64 µM; in the data set on Leishmania infantum, over 64 µM; in data set [2], over 64 µM; in the data set on Plasmodium falciparum, 64 µM; with Trypanosoma cruzi, over 64 µM; in data set [3], over 64 µM. Further, the EC50 in data set [4] is 0.001 µM.
With `CO[C@H]1O[C@@H]2O[C@@]3(C)CC[C@H]4[C@H](C)CC[C@@H]([C@H]1C)[C@@]24OO3`, the IC50 in the data set on Plasmodium falciparum is over 64 µM.
Consider `c1ccc(Nc2ccnc(Nc3ccccc3)n2)cc1`, for which the IC50 in [5] stood at 13.2 µM; in the data set with Leishmania infantum, 22.2 µM; in [2], 7.27 µM; in the data set on Plasmodium falciparum, 21.8 µM; in the data set on Trypanosoma cruzi, 4.45 µM; in data set [3], 2.53 µM. Also, the EC50 in [4] was over 10 µM.
`O=C(Cn1ccnc1[N+](=O)[O-])NCc1ccccc1` [BENZNIDAZOLE]: the IC50 in the data set with Trypanosoma cruzi stood at 2.56 µM.
For `CCN(CC)CCCC(C)Nc1ccnc2cc(Cl)ccc12` (stereo unspecified) [CHLOROQUINE], in the data set on Plasmodium falciparum, the IC50 is over 64 µM.
For `Cc1cc(C)c(Nc2ccnc(Nc3ccc(C#N)cc3)n2)c(C)c1` [DAPIVIRINE], the CC50 at 48 h in data set [1] was 2.47 µM. Moreover, the half-inhibitory concentration (IC50) in data set [5] was over 64 µM; in the data set on Leishmania infantum, over 64 µM; in [2], over 16 µM; in the data set with Plasmodium falciparum it was 4.88 µM; in the data set on Trypanosoma cruzi it was 1.25 µM; in data set [3], 19.5 µM. Moreover, the EC50 in data set [4] turned out to be 0.002 µM.
For the compound `CC(C)Nc1cccnc1N1CCN(C(=O)c2cc3cc(NS(C)(=O)=O)ccc3[nH]2)CC1` [DELAVIRDINE], the CC50 at 48 h in [1] is over 50 µM. The IC50 in [5] is over 64 µM; in the data set on Leishmania infantum, over 64 µM; in [2] it was over 64 µM; in the data set with Plasmodium falciparum, 64 µM; in the data set on Trypanosoma cruzi it was over 64 µM; in data set [3], over 64 µM. Also, the EC50 in data set [4] is 0.055 µM.
For the compound `O=C1Nc2ccc(Cl)cc2[C@@](C#CC2CC2)(C(F)(F)F)O1` [EFAVIRENZ], the CC50 at 48 h in [1] was over 50 µM. Besides, the IC50 in data set [5] is 25.8 µM; in the data set on Leishmania infantum it was 7.4 µM; in data set [2] it was 30.2 µM; in the data set with Plasmodium falciparum it was 43.8 µM; in the data set on Trypanosoma cruzi, 8.56 µM; in [3] it was 19.6 µM.
As to `Cc1cc(C#N)cc(C)c1Oc1nc(Nc2ccc(C#N)cc2)nc(N)c1Br` [ETRAVIRINE], the cytotoxic concentration (CC50) at 48 h in data set [1] is over 25 µM. Also, the IC50 in [5] is over 64 µM; with Leishmania infantum, 41.6 µM; in data set [2] it was over 64 µM; with Plasmodium falciparum, 64 µM; in the data set with Trypanosoma cruzi, over 64 µM; in data set [3] it was over 64 µM. Moreover, the EC50 in [4] amounted to 0.001 µM.
Regarding `CCc1nn(CCO)c(CC)c1Oc1cc(C#N)cc(C#N)c1` [LERSIVIRINE], the CC50 at 48 h in data set [1] was over 100 µM. In addition, the IC50 with Leishmania infantum is over 64 µM; in [2], over 64 µM; in the data set on Plasmodium falciparum, over 64 µM; in the data set with Trypanosoma cruzi it was over 64 µM; in data set [3] it was 54.7 µM. For the same compound, the EC50 in data set [4] was found to be 0.003 µM.
`Nc1nc(N)nc(Nc2ccc([As]3SCC(CO)S3)cc2)n1` (stereo unspecified) [MELARSOPROL]: in data set [6], the logD (commonly lipophilicity at a set pH, counting ionised and neutral species) at 2 h turned out to be 4.51. Besides, the results for the IC50 in data set [5], in data set [2] and in [3] were 7.4 µM, 0.03 µM and 0.02 µM, respectively. The remaining at 24 h in data set [7] amounted to 100%. Further, the values for the remaining at […] in [8] and in data set [9] were 72% and 84%, respectively. Also, the concentration in solution in data set [10] (solubility at 2 h) came to 25 µM. Moreover, the remaining at 1 h in data set [11] and in data set [12] was 100% each time.
As to `CCCCCCCCCCCCCCCCOP(=O)([O-])OCC[N+](C)(C)C` [MILTEFOSINE], the IC50 with Leishmania infantum stood at 6.17 µM.
Regarding `Cc1ccnc2c1NC(=O)c1cccnc1N2C1CC1` [NEVIRAPINE], the CC50 at 48 h in [1] is over 50 µM. Besides, the concentration for half-maximal inhibition (IC50) was over 64 µM in [5]; over 64 µM in the data set with Leishmania infantum; over 64 µM in data set [2]; 64 µM with Plasmodium falciparum; over 64 µM in the data set with Trypanosoma cruzi; over 64 µM in data set [3]. For the same compound, the EC50 in data set [4] worked out at 0.144 µM.
For `CC1CS(=O)(=O)CCN1/N=C/c1ccc([N+](=O)[O-])o1` (stereo unspecified) [NIFURTIMOX], the IC50 with Trypanosoma cruzi worked out at 0.7 µM.
With `Cc1ccc(C(=O)Nc2ccc(S(=O)(=O)O)c3cc(S(=O)(=O)O)cc(S(=O)(=O)O)c23)cc1NC(=O)c1cccc(NC(=O)Nc2cccc(C(=O)Nc3cc(C(=O)Nc4ccc(S(=O)(=O)O)c5cc(S(=O)(=O)O)cc(S(=O)(=O)O)c45)ccc3C)c2)c1` [SURAMIN], the figures for the IC50 in data set [5], in data set [2] and in data set [3] were over 64 µM, 0.02 µM and 0.02 µM, respectively. Also, the outcome in data set [13] was Active. Also, the inhibition in vivo (commonly how much of the control response was suppressed) at 10 mg/kg in data set [14] was 100%. The MST in data set [15] was over 21 days.
For the compound `CC(C)=CCOc1cc(NC(=S)c2ccoc2C)ccc1Cl` [UC 781], in data set [1], the CC50 at 48 h was over 100 µM. Also, the IC50 is over 64 µM in [5]; over 64 µM in the data set on Leishmania infantum; over 64 µM in data set [2]; 27.4 µM in the data set on Plasmodium falciparum; over 64 µM in the data set with Trypanosoma cruzi; 38.5 µM in data set [3]. The EC50 in data set [4] was determined as 0.003 µM.

These data come from ChEMBL document CHEMBL3352040, “From human immunodeficiency virus non-nucleoside reverse transcriptase inhibitors to potent and selective antitrypanosomal compounds” (Bioorg Med Chem, 2014).
